According to US8722014B2, “1 H-[1, 2, 3] triazole substituted amino acids and uses thereof” (Washington University, priority 2009, dated 2014):
Several values for one entry are separate records, joined by “and”; a condition that tells them apart may be missing. Equal values may be shown once. Read-outs that look alike come from different tables or passages of the source.

Experiments:
[1] = test system: subcutaneous 9L gliosarcoma tumors
Experimental: Biodistribution studies were performed with both enantiomers, (R)-[^18F]4 and (S)-[^18F]4, using Fischer 344 rats (Charles River Laboratories, Wilmington Mass., USA) implanted with subcutaneous 9L gliosarcoma tumors. The tumors were implanted by subcutaneous injection of a suspension of approximately 1×10^69L gliosarcoma cells into the flanks of the rats. The tumors were allowed to grow for 3 weeks prior to the study. The rats were allowed food and water ad libitum prior to the biodistribution study. Anesthesia was achieved using a mixture of 1% isoflurane in oxygen, and the radiolabeled amino acid (R)-[^18F]4 or (S)-[^18F]4 was injected intravenously through a tail vein. The animals were euthanized in groups of four for each enantiomer at 5, 30 or 60 minutes after injection. The organs and tissues of interest and the tumors were dissected and weighed, and the amounts of activity were measured and decay corrected to the time of injection with a gamma counter. Standards for the doses were also measured with a gamma counter, and the data were normalized as the percent of total dose per gram of tissue (% ID/g) for each sample. The data were analyzed using GraphPad Prism software with 1-way ANOVAs for each enantiomer at each time point with Bonferroni post-tests. The tumor and brain uptake of radioactivity was directly compared for both enantiomers at each time point with a 2-way ANOVA with Bonferroni post-test. p-values less than or equal to 0.05 were considered statistically significant.

9L gliosarcoma cells = assay: Cell uptake assay in 9L gliosarcoma cells with amino acid transport inhibitors (cluster tray method); type: cell-based; details: for percent uptake relative to control, Na ASC: L-Ala/L-Ser/L-Cys 3.3 mM each
Experimental: The 9L gliosarcoma tumor is an established model for human glioblastoma (brain tumor). Cell uptake assays were performed with 9L gliosarcoma cells using both (R)-[^18F]4 and (S)-[^18F]4. 9L gliosarcoma cells were cultured with Earle's minimal essential medium (MEM) augmented with 10% newborn calf serum, 1% 200 mM L-glutamine, 1% MEM vitamin solution and 1% 10 mM non-essential amino acids (NEAA). The cells were passaged every two to three days prior to use with no more than a total of 20 passages. Two to three days before the uptake assays, suspension of 2.5 or 5.0×10^4 cells in culture media were aliquoted into Costar 24 well plates to achieve log growth phase with approximately 70% confluency at the time of the uptake assay (approximately 10^5 cells per well).
Cell uptake assays were performed using the cluster tray method reported in Gazzola et al., Anal. Biochem. 115: 368-374, 1981. Two buffers were used for the assays, a phosphate buffered saline solution and a sodium-free phosphate buffered choline chloride solution. […] The choline buffer was the same as the sodium buffer except choline chloride was substituted for sodium chloride and choline phosphate dibasic was substituted for sodium phosphate dibasic. A 250 mM solution of choline phosphate dibasic was prepared by boiling 95.6 mL of 75% of choline bicarbonate (0.500 mol) and 16.9 mL of 85% aqueous phosphoric acid (0.247 mol) in 750 mL of water for 60 min. The solution was brought to a total volume of 1 liter with water and brought to pH 7.4 with concentrated aqueous hydrochloric acid. The pH of the sodium and choline buffer solutions was adjusted to 7.4 with concentrated aqueous hydrochloric acid prior to use.
A variety of inhibitor conditions were used to determine which amino acid transport system or systems were responsible for cellular uptake of (R)- and (S)-[^18F]-4. The N-methylated amino acid, methylaminoisobutyric acid (MeAIB), is a selective system A substrate and has been used extensively as a competitive inhibitor of system A transport (Shotwell, M. A., et al. Biochem. Biophys. Acta. 737: 267-284, 1983; Christensen, H. N., et al., J. Biol. Chem. 240: 3609-3616, 1965) The bulky neutral amino acid, 2-aminobicyclo-(2,2,1)-heptane-2-carboxylic acid (BCH), has been extensively used as a competitive inhibitor of system L transport, and under sodium-free conditions BCH is a selective system L inhibitor (Palacin, M., et al., Physiol. Rev. 78: 969-1054, 1998. In the presence of sodium, BCH is also an inhibitor of system B^0,+ which is a sodium-dependent amino acid transporter that typically is a minor transport systems in most tissues. A mixture of L-alanine (L-Ala), L-serine (L-Ser) and L-cysteine (L-Cys), (ASC), was used as a non-specific inhibitor condition, and this combination of amino acids is expected to inhibit a broad range of amino acid transport systems including system ASC. Because of the results of initial cell uptake assays described below and the structural relationship of the 1H-1,2,3-triazole group to the imidazole side chain of L-histidine (L-His), additional uptake assays using L-His as well as the basic side chain amino acids L-arginine (L-Arg) and L-lysine (L-Lys) individually and together (RKH) as competitive inhibitors were performed.
The following inhibitors were added to the appropriate sodium or choline buffer: N-methyl aminoisobutyric acid (MeAIB, 10 mM), a mixture of L-alanine/L-serine/L-cysteine (ASC, 3.3 mM of each amino acid), (R,S)-(endo,exo)-2-aminobicyclo(2,2,1)-heptane-2-carboxylic acid (BCH, 10 mM), L-arginine (Arg, 10 mM), L-lysine (Lys, 10 mM), L-histidine (His, 10 mM) and a mixture of Arg/Lys/H is (RKH, 3.3 mM of each amino acid). For control conditions, 10 mM of sucrose was added to maintain consistent osmolality relative to the inhibitor conditions. The pH of each solution of inhibitor in buffer was adjusted as necessary to 7.40 with 3 M aqueous hydrochloric acid prior to use in cell uptake assays. […]

SMILES: Cl.N[C@H](Cc1cn(CC[18F])nn1)C(=O)O [(R)-[^18F]4, (R)-2-amino-3-[1-(2-fluoroethyl)-1H-[1,2,3]triazol-4-yl]propanoic acid hydrochloride salt-[^18F]]
- biodistribution: blood ([1]; 5 min after i.v. injection): 0.90 ± 0.166 % ID/g
- biodistribution: bone ([1]; 5 min after i.v. injection): 0.32 ± 0.083 % ID/g
- biodistribution: brain ([1]; 5 min after i.v. injection): 0.09 ± 0.015 % ID/g
- biodistribution: fat ([1]; 5 min after i.v. injection): 0.10 ± 0.044 % ID/g
- biodistribution: heart ([1]; 5 min after i.v. injection): 0.42 ± 0.076 % ID/g
- biodistribution: kidney ([1]; 5 min after i.v. injection): 14.01 ± 3.826 % ID/g
- biodistribution: large intestine ([1]; 5 min after i.v. injection): 0.15 ± 0.043 % ID/g
- biodistribution: liver ([1]; 5 min after i.v. injection): 0.54 ± 0.153 % ID/g
- biodistribution: lung ([1]; 5 min after i.v. injection): 0.74 ± 0.143 % ID/g
- biodistribution: muscle ([1]; 5 min after i.v. injection): 0.18 ± 0.049 % ID/g
- biodistribution: pancreas ([1]; 5 min after i.v. injection): 0.53 ± 0.126 % ID/g
- biodistribution: salivary gland ([1]; 5 min after i.v. injection): 0.46 ± 0.083 % ID/g
- biodistribution: small intestine ([1]; 5 min after i.v. injection): 0.32 ± 0.079 % ID/g
- biodistribution: spleen ([1]; 5 min after i.v. injection): 0.33 ± 0.065 % ID/g
- biodistribution: testes ([1]; 5 min after i.v. injection): 0.18 ± 0.042 % ID/g
- biodistribution: thyroid ([1]; 5 min after i.v. injection): 0.64 ± 0.092% of total dose per organ
- biodistribution: tumor ([1]; 5 min after i.v. injection): 0.27 ± 0.042 % ID/g
- tumor:brain ratio ([1]; 5 min after i.v. injection): 3.2
- biodistribution: blood ([1]; 30 min after i.v. injection): 0.28 ± 0.037 % ID/g
- biodistribution: bone ([1]; 30 min after i.v. injection): 0.13 ± 0.027 % ID/g
- biodistribution: brain ([1]; 30 min after i.v. injection): 0.04 ± 0.005 % ID/g
- biodistribution: fat ([1]; 30 min after i.v. injection): 0.03 ± 0.012 % ID/g
- biodistribution: heart ([1]; 30 min after i.v. injection): 0.13 ± 0.014 % ID/g
- biodistribution: kidney ([1]; 30 min after i.v. injection): 6.76 ± 0.830 % ID/g
- biodistribution: large intestine ([1]; 30 min after i.v. injection): 0.08 ± 0.060 % ID/g
- biodistribution: liver ([1]; 30 min after i.v. injection): 0.58 ± 0.074 % ID/g
- biodistribution: lung ([1]; 30 min after i.v. injection): 0.54 ± 0.211 % ID/g
- biodistribution: muscle ([1]; 30 min after i.v. injection): 0.08 ± 0.020 % ID/g
- biodistribution: pancreas ([1]; 30 min after i.v. injection): 0.50 ± 0.105 % ID/g
- biodistribution: salivary gland ([1]; 30 min after i.v. injection): 0.20 ± 0.016 % ID/g
- biodistribution: small intestine ([1]; 30 min after i.v. injection): 0.30 ± 0.154 % ID/g
- biodistribution: spleen ([1]; 30 min after i.v. injection): 0.18 ± 0.004 % ID/g
- biodistribution: testes ([1]; 30 min after i.v. injection): 0.08 ± 0.011 % ID/g
- biodistribution: thyroid ([1]; 30 min after i.v. injection): 0.21 ± 0.023% of total dose per organ
- biodistribution: tumor ([1]; 30 min after i.v. injection): 0.29 % ID/g and 0.29 ± 0.132 % ID/g
- tumor:brain ratio ([1]; 30 min after i.v. injection): 8.8
- biodistribution: blood ([1]; 60 min after i.v. injection): 0.14 ± 0.015 % ID/g
- biodistribution: bone ([1]; 60 min after i.v. injection): 0.08 ± 0.007 % ID/g
- biodistribution: brain ([1]; 60 min after i.v. injection): 0.02 ± 0.001 % ID/g
- biodistribution: fat ([1]; 60 min after i.v. injection): 0.02 ± 0.002 % ID/g
- biodistribution: heart ([1]; 60 min after i.v. injection): 0.08 ± 0.006 % ID/g
- biodistribution: kidney ([1]; 60 min after i.v. injection): 2.39 ± 0.138 % ID/g
- biodistribution: large intestine ([1]; 60 min after i.v. injection): 0.05 ± 0.002 % ID/g
- biodistribution: liver ([1]; 60 min after i.v. injection): 0.48 ± 0.023 % ID/g
- biodistribution: lung ([1]; 60 min after i.v. injection): 0.37 ± 0.100 % ID/g
- biodistribution: muscle ([1]; 60 min after i.v. injection): 0.05 ± 0.006 % ID/g
- biodistribution: pancreas ([1]; 60 min after i.v. injection): 0.43 ± 0.063 % ID/g
- biodistribution: salivary gland ([1]; 60 min after i.v. injection): 0.15 ± 0.009 % ID/g
- biodistribution: small intestine ([1]; 60 min after i.v. injection): 0.35 ± 0.015 % ID/g
- biodistribution: spleen ([1]; 60 min after i.v. injection): 0.14 ± 0.002 % ID/g
- biodistribution: testes ([1]; 60 min after i.v. injection): 0.05 ± 0.002 % ID/g
- biodistribution: thyroid ([1]; 60 min after i.v. injection): 0.12 ± 0.010% of total dose per organ
- biodistribution: tumor ([1]; 60 min after i.v. injection): 0.17 ± 0.009 % ID/g
- tumor:brain ratio ([1]; 60 min after i.v. injection): 6.9
- inhibition of uptake by ASC condition relative to the sodium control (9L gliosarcoma cells; neutral amino acid inhibitor assay, p<0.001): 36%
- uptake mediated by system L or cationic amino acid transport systems (9L gliosarcoma cells; same uptake assays with inhibitors): did not demonstrate significant uptake
- inhibition of uptake by ASC condition relative to the sodium control (9L gliosarcoma cells; second independent assay, p<0.01): 33%
- percent uptake relative to control, Na RKH (9L gliosarcoma cells; sodium buffer, Arg/Lys/His 3.3 mM each (FIG. 4/6)): 82±4%
- percent uptake relative to control, Na BCH (9L gliosarcoma cells; sodium buffer, BCH 10 mM, 30 sec uptake, neutral amino acid inhibitor assay (FIG. 3/5)): 110±11%
- percent uptake relative to control, Na ASC (9L gliosarcoma cells; sodium buffer, 30 sec uptake, neutral amino acid inhibitor assay (FIG. 3/5)): 64±6%
- percent uptake relative to control, Na ASC (9L gliosarcoma cells; sodium buffer, basic side chain amino acid inhibitor assay (FIG. 4/6)): 67±15%
- percent uptake relative to control, Na Arg (9L gliosarcoma cells; sodium buffer, L-arginine 10 mM (FIG. 4/6)): 83±7%
- percent uptake relative to control, Na His (9L gliosarcoma cells; sodium buffer, L-histidine 10 mM (FIG. 4/6)): 91±10%
- percent uptake relative to control, Na Lys (9L gliosarcoma cells; sodium buffer, L-lysine 10 mM (FIG. 4/6)): 104±8%
- percent uptake relative to control, Na MeAIB (9L gliosarcoma cells; sodium buffer, MeAIB 10 mM, 30 sec uptake, neutral amino acid inhibitor assay (FIG. 3/5)): 97±7%
- percent uptake relative to control, Cho BCH (9L gliosarcoma cells; sodium-free choline buffer, BCH 10 mM, relative to sodium control (FIG. 3/5)): 95±4%
- percent uptake relative to control, Cho sucrose (9L gliosarcoma cells; sodium-free choline buffer, sucrose 10 mM, relative to sodium control (FIG. 3/5)): 107±14%
